Read-outs that look alike come from different tables or passages of the source.

Experiment [1] addresses TBK1 (Homo sapiens (Human), UniProt Q9UHD2). Nature of the experiment: Lanthascreen TR-FRET kinase inhibition assay, TBK1. Format: biochemical. The protocol: (§1) Compounds of the invention (synthesised as described below) were tested for activity against the IKKε and TBK-1 enzyme as follows:
(§2) Inhibitions studies were performed using a time-resolved fluorescence-based Lanthascreen™ assay. Phosphorylation of a fluorescein-labelled substrate peptide is measured using terbium-labeled phosphospecific antibodies.
(§3) Kinase inhibition assays (10 μL) were performed at 20° C. in 384-well plate format. […] The final reaction conditions contained 400 nM fluorescein-IkBα substrate ([…]), 20 μM ATP, 2 nM or 8 nM IKKε or TBK1 kinase respectively, and 3% DMSO in kinase assay buffer consisting of 50 mM HEPES (pH 7.5), 10 mM MgCl, 1 mM EGTA, 0.01% Brij-35.
(§4) Compound dilutions were prepared from 10 mM DMSO stocks by dilution into DMSO.
(§5) The kinase phosphorylation assay was initiated by the addition of the kinase and the reaction was allowed to proceed for 1 h or 2.5 h for IKKε and TBK-1 kinase respectively.
In general terms: TR-FRET usually uses a lanthanide donor and a delayed reading to cut background.

Experiment [2] deals with IKKε (Homo sapiens (Human), UniProt Q14164). Nature of the experiment: Lanthascreen TR-FRET kinase inhibition assay, IKKε. Format: biochemical. As for the experimental part: as §1, §2, §3, §4, §5
Setting [3] is: 20 μM ATP (apparent Km), 8 nM kinase, 2.5 h.
[4] abbreviates: 20 μM ATP (apparent Km), 2 nM kinase, 1 h.

TBK1, sequence (Q9UHD2 whole entry): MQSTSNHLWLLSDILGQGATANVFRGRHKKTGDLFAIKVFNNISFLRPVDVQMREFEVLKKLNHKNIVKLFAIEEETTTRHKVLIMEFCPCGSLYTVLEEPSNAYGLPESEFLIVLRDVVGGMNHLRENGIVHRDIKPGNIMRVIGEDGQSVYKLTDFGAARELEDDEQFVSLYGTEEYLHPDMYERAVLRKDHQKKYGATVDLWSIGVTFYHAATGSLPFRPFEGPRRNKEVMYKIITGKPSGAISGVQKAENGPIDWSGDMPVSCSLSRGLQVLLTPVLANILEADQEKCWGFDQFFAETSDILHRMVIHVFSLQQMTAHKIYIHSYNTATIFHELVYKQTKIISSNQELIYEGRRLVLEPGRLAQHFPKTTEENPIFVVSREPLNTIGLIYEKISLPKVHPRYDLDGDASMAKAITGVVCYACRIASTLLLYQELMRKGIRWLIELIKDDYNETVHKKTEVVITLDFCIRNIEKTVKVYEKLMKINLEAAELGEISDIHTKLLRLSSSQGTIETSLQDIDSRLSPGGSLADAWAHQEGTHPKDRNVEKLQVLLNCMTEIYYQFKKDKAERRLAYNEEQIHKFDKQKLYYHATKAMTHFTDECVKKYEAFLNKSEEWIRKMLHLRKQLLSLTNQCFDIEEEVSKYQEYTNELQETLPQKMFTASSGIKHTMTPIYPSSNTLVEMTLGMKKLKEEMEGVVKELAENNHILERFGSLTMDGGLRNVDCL
IKKε, sequence (Q14164 whole entry): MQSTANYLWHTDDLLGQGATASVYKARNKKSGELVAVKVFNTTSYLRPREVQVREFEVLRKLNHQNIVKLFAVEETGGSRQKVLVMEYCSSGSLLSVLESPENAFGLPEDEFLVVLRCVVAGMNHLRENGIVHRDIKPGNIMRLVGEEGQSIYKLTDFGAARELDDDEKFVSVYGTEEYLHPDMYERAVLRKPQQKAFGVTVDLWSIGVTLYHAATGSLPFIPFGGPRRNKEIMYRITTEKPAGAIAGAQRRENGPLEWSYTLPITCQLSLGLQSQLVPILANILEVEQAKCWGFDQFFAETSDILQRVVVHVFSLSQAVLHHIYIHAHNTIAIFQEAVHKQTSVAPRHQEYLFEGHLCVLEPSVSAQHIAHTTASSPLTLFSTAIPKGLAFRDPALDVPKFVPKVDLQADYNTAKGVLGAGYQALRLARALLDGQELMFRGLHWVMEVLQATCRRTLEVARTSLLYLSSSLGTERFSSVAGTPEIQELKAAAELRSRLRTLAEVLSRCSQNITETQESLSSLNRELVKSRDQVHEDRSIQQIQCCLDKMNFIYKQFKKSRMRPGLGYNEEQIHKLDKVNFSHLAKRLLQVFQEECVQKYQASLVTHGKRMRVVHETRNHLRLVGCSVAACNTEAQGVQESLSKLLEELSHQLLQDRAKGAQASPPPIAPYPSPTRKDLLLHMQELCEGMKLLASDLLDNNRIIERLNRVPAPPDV

By IC50 is commonly meant the midpoint of a concentration-inhibition curve. On to `Cn1cc(Nc2nccc(-c3cnc(N4CCC[C@@H]4C(=O)O)c(C#N)c3)n2)cn1` [DMX-40, (R)-1-{3-Cyano-5-[2-(1-methyl-1H-pyrazol-4-ylamino)-pyrimidin-4-yl]-pyridin-2-yl}-pyrrolidine-2-carboxylic acid], for which the 50% inhibitory concentration (IC50) in experiment [1] (setting [3]) was below 1000 nM; in experiment [2] (setting [4]), below 9000 nM.
Regarding `Cn1cc(NC(=O)[C@H]2CCCN2c2ncc(-c3ccnc(Nc4cnn(C)c4)n3)cc2C#N)cn1` [DMX-41, (R)-1-{3-Cyano-5-[2-(1-methyl-1H-pyrazol-4-ylamino)-pyrimidin-4-yl]-pyridin-2-yl}-pyrrolidine-2-carboxylic acid (1-methyl-1H-pyrazol-4-yl)-amide], the IC50 in experiment [1] (setting [3]) is below 100 nM; in experiment [2] (setting [4]) it was below 1000 nM.
For `Cn1cc(Nc2nccc(-c3cnc(N4CCC[C@H]4C#N)c(C#N)c3)n2)cn1` [DMX-42, 2-((S)-2-Cyano-pyrrolidin-1-yl)-5-[2-(1 methyl-1H-pyrazol-4-ylamino)-pyrimidin-4-yl]-nicotinonitrile] the same measures were below 100 nM and below 1000 nM.
For `Cn1cc(Nc2nccc(-c3cnc(N4CCC[C@@H]4C(N)=O)c(C#N)c3)n2)cn1` [DMX-43, (R)-1-{3-Cyano-5-[2-(1-methyl-1H-pyrazol-4-ylamino)-pyrimidin-4-yl]-pyridin-2-yl}-pyrrolidine-2-carboxylic acid amide] the same measures were below 100 nM and below 100 nM.
On to `Cn1cc(Nc2nccc(-c3cnc(N4C5CCC4CC(O)C5)c(C#N)c3)n2)cn1` (stereo not drawn) [DMX-44, 2-(3-Hydroxy-8-aza-bicyclo[3.2.1]oct-8-yl)-5-[2-(1-methyl-1H-pyrazol-4-ylamino)-pyrimidin-4-yl]-nicotinonitrile], for which the IC50 is below 15 nM in experiment [1] and below 30 nM in experiment [2].
For `Cn1cc(Nc2nccc(-c3cnc(N4C5CCC4COC5)c(C#N)c3)n2)cn1` [DMX-45, 5-[2-(1-Methyl-1H-pyrazol-4-ylamino)-pyrimidin-4-yl]-2-(3-oxa-8-aza-bicyclo[3.2.1]oct-8-yl)-nicotinonitrile], the IC50 in experiment [1] (setting [3]) and in experiment [2] (setting [4]) was below 100 nM in each case.
On to `N#Cc1cc(-c2ccnc(Nc3cnn(CCO)c3)n2)cnc1N1C2CCC1COC2` [DMX-46, 5-{2-[1-(2-Hydroxy-ethyl)-1H-pyrazol-4-ylamino]-pyrimidin-4-yl}-2-(3-oxa-8-aza-bicyclo[3.2.1]oct-8-yl)-nicotinonitrile], for which the IC50 in experiment [1] (setting [3]) was below 100 nM; in experiment [2] (setting [4]), below 1000 nM.
With `N#Cc1cc(-c2ccnc(Nc3ccc(C(N)=O)nc3)n2)cnc1N1CC[C@H](F)C1` [DMX-47, 5-{4-[5-Cyano-6-((S)-3-fluoro-pyrrolidin-1-yl)-pyridin-3-yl]-pyrimidin-2-ylamino}-pyridine-2-carboxylic acid amide], the IC50 in experiment [1] (setting [3]) and in experiment [2] (setting [4]) was below 30 nM each time.
Turning to `N#Cc1cc(-c2ccnc(Nc3ccc(C(=O)NCCO)cc3)n2)cnc1N1CC[C@H](F)C1` [DMX-48, 4-{4-[5-Cyano-6-((S)-3-fluoro-pyrrolidin-1-yl)-pyridin-3-yl]-pyrimidin-2-ylamino}-N-(2-hydroxy-ethyl)-benzamide], the half-maximal inhibitory concentration (IC50) in experiment [1] (setting [3]) and in experiment [2] (setting [4]) was below 15 nM in each case.
With `N#Cc1cc(-c2ccnc(Nc3ccc(N4CCOCC4)cc3)n2)cnc1N1CC[C@H](O)C1` [DMX-49, 2-((S)-3-Hydroxy-pyrrolidin-1-yl)-5-[2-(4-morpholin-4-yl-phenylamino)-pyrimidin-4-yl]-nicotinonitrile], the IC50 in experiment [1] (setting [3]) and in experiment [2] (setting [4]) was below 15 nM each time.
In the case of `N#Cc1cc(-c2ccnc(Nc3ccc(N4CCOCC4)nc3)n2)cnc1N1CC[C@H](O)C1` [DMX-50, 2-((S)-3-Hydroxy-pyrrolidin-1-yl)-5-[2-(6-morpholin-4-yl-pyridin-3-ylamino)-pyrimidin-4-yl]-nicotinonitrile], the half-maximal inhibitory concentration (IC50) is below 30 nM in experiment [1] (setting [3]) and below 100 nM in experiment [2] (setting [4]).
For `N#Cc1cc(-c2ccnc(Nc3cnn(CCO)c3)n2)cnc1N1CC[C@H](F)C1` [DMX-51, 2-((S)-3-Fluoro-pyrrolidin-1-yl)-5-{2-[1-(2-hydroxy-ethyl)-1H-pyrazol-4-ylamino]-pyrimidin-4-yl}-nicotinonitrile], in that order: below 30 nM and below 30 nM.
With `N#Cc1cc(-c2ccnc(Nc3cnn(CCCO)c3)n2)cnc1N1CC[C@H](F)C1` [DMX-52, 2-((S)-3-Fluoro-pyrrolidin-1-yl)-5-{2-[1-(3-hydroxy-propyl)-1H-pyrazol-4-ylamino]-pyrimidin-4-yl}-nicotinonitrile], the IC50 in experiment [1] (setting [3]) is below 30 nM; in experiment [2] (setting [4]), below 100 nM.
In the case of `N#Cc1cc(-c2ccnc(Nc3cnn(CCN4CCOCC4)c3)n2)cnc1N1CC[C@H](F)C1` [DMX-53, 2-((S)-3-Fluoro-pyrrolidin-1-yl)-5-{2-[1-(2-morpholin-4-yl-ethyl)-1H-pyrazol-4-ylamino]-pyrimidin-4-yl}-nicotinonitrile], the IC50 in experiment [1] (setting [3]) was below 30 nM; in experiment [2] (setting [4]), below 100 nM.
Turning to `COCCNCC(=O)Nc1ccc(Nc2nccc(-c3cnc(N4CC[C@H](F)C4)c(C#N)c3)n2)cn1` [DMX-54, N-(5-{4-[5-Cyano-6-((S)-3-fluoro-pyrrolidin-1-yl)-pyridin-3-yl]-pyrimidin-2-ylamino}-pyridin-2-yl)-2-(2-methoxy-ethylamino)-acetamide], the IC50 was below 100 nM in experiment [1] (setting [3]) and below 30 nM in experiment [2] (setting [4]).
In the case of `CC(NCc1ccccc1)C(=O)Nc1ccc(Nc2nccc(-c3cnc(N4CC[C@H](F)C4)c(C#N)c3)n2)cn1` (stereo partly drawn) [DMX-55, 2-Benzylamino-N-(5-{4-[5-cyano-6-((S)-3-fluoro-pyrrolidin-1-yl)-pyridin-3-yl]-pyrimidin-2-ylamino}-pyridin-2-yl)-propionamide], the half-inhibitory concentration (IC50) is below 30 nM in experiment [1] (setting [3]) and below 100 nM in experiment [2] (setting [4]).
In the case of `CC(N)C(=O)Nc1ccc(Nc2nccc(-c3cnc(N4CC[C@H](F)C4)c(C#N)c3)n2)cn1` (stereo partly drawn) [DMX-56, 2-Amino-N-(5-{4-[5-cyano-6-((S)-3-fluoro-pyrrolidin-1-yl)-pyridin-3-yl]-pyrimidin-2-ylamino)-pyridin-2-yl)-propionamide], the IC50 in experiment [1] (setting [3]) was below 100 nM; in experiment [2] (setting [4]), below 30 nM.
For the compound `N#Cc1nc(-c2ccnc(Nc3ccc(N4CCOCC4)cc3)n2)ccc1N1CC[C@H](O)C1` [DMX-57, 3-((S)-3-Hydroxy-pyrrolidin-1-yl)-6-[2-(4-morpholin-4-yl-phenylamino)-pyrimidin-4-yl]-pyridine-2-carbonitrile], the half-inhibitory concentration (IC50) in experiment [1] (setting [3]) was below 15 nM; in experiment [2] (setting [4]), below 30 nM.
As for `N#Cc1nc(-c2ccnc(Nc3ccc(N4CCOCC4)cc3)n2)ccc1N1CCCC1` [DMX-58, 6-[2-(4-Morpholin-4-yl-phenylamino)-pyrimidin-4-yl]-3-pyrrolidin-1-yl-pyridine-2-carbonitrile], the IC50 in experiment [1] (setting [3]) and in experiment [2] (setting [4]) was below 15 nM throughout.
`Cn1cc(Nc2nccc(-c3ccc(N4CC[C@H](O)C4)c(C#N)n3)n2)cn1` [DMX-59, 3-((S)-3-Hydroxy-pyrrolidin-1-yl)-6-[2-(1-methyl-1H-pyrazol-4-ylamino)-pyrimidin-4-yl]-pyridine-2-carbonitrile]: the IC50 in experiment [1] (setting [3]) and in experiment [2] (setting [4]) was below 100 nM in each case.
Consider `Cn1cc(Nc2nccc(-c3ccc(N4CCC(C(N)=O)CC4)c(C#N)n3)n2)cn1` [DMX-60, 2′-Cyano-6′-[2-(1-methyl-1H-pyrazol-4-ylamino)-pyrimidin-4-yl]-3,4,5,6-tetrahydro-2H-[1,3′]bipyridinyl-4-carboxylic acid amide], for which the IC50 in experiment [1] (setting [3]) and in experiment [2] (setting [4]) was below 100 nM throughout.
For `N#Cc1cc(-c2ccnc(Nc3ccnc(N4CCOCC4)c3)n2)cnc1N1CC[C@H](F)C1` [DMX-61, 2-((S)-3-Fluoro-pyrrolidin-1-yl)-5-[2-(2-morpholin-4-yl-pyridin-4-ylamino)-pyrimidin-4-yl]-nicotinonitrile], the IC50 in experiment [1] (setting [3]) and in experiment [2] (setting [4]) was below 15 nM in each case.
In the case of `CC(C)(N)C(=O)Nc1ccc(Nc2nccc(-c3cnc(N4CC[C@H](F)C4)c(C#N)c3)n2)cn1` [DMX-62, 2-Amino-N-(5-{4-[5-cyano-6-((S)-3-fluoro-pyrrolidin-1-yl)-pyridin-3-yl]-pyrimidin-2-ylamino}-pyridin-2-yl)-2-methyl-propionamide], the results for the IC50 in experiment [1] (setting [3]) and in experiment [2] (setting [4]) were below 100 nM and below 30 nM, respectively.
`N#Cc1cc(-c2ccnc(Nc3cn[nH]c3)n2)cnc1N1CC[C@H](F)C1` [DMX-63, 2-((S)-3-Fluoro-pyrrolidin-1-yl)-5-[2-(1H-pyrazol-4-ylamino)-pyrimidin-4-yl]-nicotinonitrile]: the IC50 in experiment [1] (setting [3]) and in experiment [2] (setting [4]) was below 15 nM in each case.
For the compound `N#Cc1cc(-c2ccnc(Nc3ccn[nH]3)n2)cnc1N1CC[C@H](F)C1` [DMX-64, 2-((S)-3-Fluoro-pyrrolidin-1-yl)-5-[2-(2H-pyrazol-3-ylamino)-pyrimidin-4-yl]-nicotinonitrile], the half-maximal inhibitory concentration (IC50) was below 1000 nM in experiment [1] (setting [3]) and below 100 nM in experiment [2] (setting [4]).
Take `N#Cc1cc(-c2ccnc(Nc3ccc(NC(=O)[C@@H]4CCCN4)nc3)n2)cnc1N1CC[C@H](F)C1` [DMX-65, (S)-Pyrrolidine-2-carboxylic acid (5-{4-[5-cyano-6-((S)-3-fluoro-pyrrolidin-1-yl)-pyridin-3-yl]-pyrimidin-2-ylamino}-pyridin-2-yl)-amide]: the IC50 in experiment [1] (setting [3]) is below 100 nM; in experiment [2] (setting [4]) it was below 30 nM.
Take `N#Cc1cc(-c2ccnc(Nc3ccc(NC(=O)CN4CCCC4)nc3)n2)cnc1N1CC[C@H](F)C1` [DMX-66, N-(5-{4-[5-Cyano-6-((S)-3-fluoro-pyrrolidin-1-yl)-pyridin-3-yl]-pyrimidin-2-ylamino}-pyridin-2-yl)-2-pyrrolidin-1-yl-acetamide]: the results for the half-maximal inhibitory concentration (IC50) in experiment [1] (setting [3]) and in experiment [2] (setting [4]) were below 30 nM and below 100 nM, respectively.

Values taken from patent US9433622B2, “Pyrimidine compounds useful in the treatment of diseases mediated by IKKE and/or TBK1 mechanisms” (DOMAINEX LIMITED, priority 2013, dated 2016).
